Tested on: UUO-induced renal fibrosis
Assay: UUO-induced renal fibrosis, Masson Trichrome staining of kidney sections with image analysis
Format: in vivo, Sprague Dawley rats
Conditions: rat UUO kidney, day 14; hSAP 2 mg/kg iv q2d days 0-12; enalapril 200 mg/L in drinking water; HSA control approximately 22%, uninjured kidney approximately 5%
Experimental: Unilateral Ureter Obstruction (UUO) in the rat is a suitable model of renal fibrosis'. Renal fibrosis was induced in Sprague Dawley rats weighing 200-250 grams. Rats were anesthetized with ketamine (100 mg/kg) and xylazine (5 mg/kg). All surgical procedures were conducted using aseptic techniques.
The left kidney, renal artery and vein were exposed and the ureter occluded using suture. The surgical site was then sutured closed.
Human serum albumin in PBS (group 1) or hSAP in PBS (groups 2-5) was given to animals by intravenous (iv) injection every other day from day 0 to day 12 as detailed in Table 4. Enalapril was be added to the drinking water of animals in groups 2, 5 and 6, beginning on the day of study and continuing until sacrifice (day 14).
On day 14, animals were sacrificed and both the left occluded and right contralateral control kidneys excised.
To determine the extent of fibrosis induced by 14 days of UUO, kidney sections from all groups of animals were stained with Masson Trichrome and the extent of Trichrome positivity determined using image analysis (see FIG. 1). […] However, there was a significant inhibition in Trichrome staining in the animals treated with the combination of enalapril and hSAP (p<0.05; approximately 10%). […]

Row | Compound | extent of Trichrome staining (collagen deposition in the kidney)
1 | CCOC(=O)[C@H](CCc1ccccc1)N[C@@H](C)C(=O)N1CCC[C@H]1C(=O)O [enalapril] | approximately 15%
2 | hSAP: human serum amyloid P, a pentraxin family protein that suppresses fibrocyte differentiation | approximately 25%
